Measured values: ChEMBL document CHEMBL1129184, “Synthesis of water-soluble prodrugs of the cytotoxic agent Combretastatin A4” (Bioorg Med Chem Lett, 1996)

Columns and labels:
[1] = Solubility was determined; assay type: physicochemical
[2] = Percent of the mice tested that exhibited toxicity after a dose of 150 mg/kg; assay type: organism-based; design: dose 150 mg/kg; conditions: mouse, in vivo

Row | Compound | solubility [1] | Activity [2]
1 | COc1ccc(/C=C\c2cc(OC)c(OC)c(OC)c2)cc1O.N | ~2800 µg/mL | –
2 | COc1ccc(/C=C\c2cc(OC)c(OC)c(OC)c2)cc1[O-].[K+] | – | 60%
